Measurements: patent publication US20120107854A1, “REAGENT FOR MEASUREMENT OF CHOLINESTERASE ACTIVITY” (NATIONAL INSTITUTE OF RADIOLOGICAL SCIENCES, priority 2009, published 2012)

Tests used:
[1] = target: purified human butyrylcholinesterase (Homo sapiens, UniProt P06276); assay: Hydrolysis rate with purified human butyrylcholinesterase by the Ellman method; format: biochemical; settings: for hydrolysis rate with butyrylcholinesterase compared with spontaneous hydrolysis in the buffer solution: comparison of Table 1 values; for hydrolysis rate with Butyrylcholinesterase (change in absorbance per minute): phosphate buffer 0.1 M pH 7.4, 0.1% Tween 20, absorbance at 412 nm, measured three times, average ± standard deviation
Chain of purified human butyrylcholinesterase (P06276 29-602): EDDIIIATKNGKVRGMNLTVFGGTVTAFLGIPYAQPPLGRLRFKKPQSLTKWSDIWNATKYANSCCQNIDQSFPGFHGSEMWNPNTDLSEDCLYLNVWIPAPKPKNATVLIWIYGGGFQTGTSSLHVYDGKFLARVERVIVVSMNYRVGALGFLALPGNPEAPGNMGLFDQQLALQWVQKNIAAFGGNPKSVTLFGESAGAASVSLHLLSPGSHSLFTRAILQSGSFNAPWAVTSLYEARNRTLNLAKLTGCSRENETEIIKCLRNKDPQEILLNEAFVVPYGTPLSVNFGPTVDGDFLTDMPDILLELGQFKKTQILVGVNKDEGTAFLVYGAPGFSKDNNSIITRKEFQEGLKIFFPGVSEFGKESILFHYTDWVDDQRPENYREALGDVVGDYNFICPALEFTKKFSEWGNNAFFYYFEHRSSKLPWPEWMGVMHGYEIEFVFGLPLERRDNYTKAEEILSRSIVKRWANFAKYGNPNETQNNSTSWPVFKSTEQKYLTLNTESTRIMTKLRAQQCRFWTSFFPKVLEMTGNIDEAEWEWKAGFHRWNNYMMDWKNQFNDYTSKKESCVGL
Experimental: (§1) To investigate the hydrolysis rate and specificity of each of (1a) and (2a), the hydrolysis rate in a solution of each of purified human acetylcholinesterase and purified human butyrylcholinesterase was measured by the Ellman method, and was compared with those of acetyl thiocholine and acetyl-[…]. To 3 ml of a solution of each enzyme whose concentration was adjusted with a phosphate buffer (0.1 M, pH 7.4) containing 0.1% of Tween 20, 0.1 ml of a solution (5 mM) of 5,5′-dithio-bis(2-nitrobenzoic acid) was added. To these mixtures, the substrates were respectively added in an amount of 0.02 ml (75 mM), and the absorbance (mAbs) at a wavelength of 412 nm was measured.
(§2) The values in the Table represent the changes in absorbance per minute measured three times in the form of average value±standard deviation.

[2] = target: purified human acetylcholinesterase (Homo sapiens, UniProt P22303); format: biochemical; settings: for hydrolysis rate with Acetylcholinesterase (change in absorbance per minute): phosphate buffer 0.1 M pH 7.4, 0.1% Tween 20, absorbance at 412 nm, measured three times, average ± standard deviation; for specificity for acetylcholinesterase: acetylcholinesterase versus butyrylcholinesterase hydrolysis; for reaction order of the hydrolysis rate (time dependence): at the substrate concentration, change with time showed good linearity; for reaction order of the hydrolysis rate (time dependence) / change in absorbance at 412 nm with time: FIG. 1; for substrate quality for acetylcholinesterase: hydrolysis rate lower than acetyl thiocholine and acetyl-δ methyl-thiocholine; for change in absorbance at 412 nm with time: in 120 minutes, acetylcholinesterase
Chain of purified human acetylcholinesterase (P22303 32-614): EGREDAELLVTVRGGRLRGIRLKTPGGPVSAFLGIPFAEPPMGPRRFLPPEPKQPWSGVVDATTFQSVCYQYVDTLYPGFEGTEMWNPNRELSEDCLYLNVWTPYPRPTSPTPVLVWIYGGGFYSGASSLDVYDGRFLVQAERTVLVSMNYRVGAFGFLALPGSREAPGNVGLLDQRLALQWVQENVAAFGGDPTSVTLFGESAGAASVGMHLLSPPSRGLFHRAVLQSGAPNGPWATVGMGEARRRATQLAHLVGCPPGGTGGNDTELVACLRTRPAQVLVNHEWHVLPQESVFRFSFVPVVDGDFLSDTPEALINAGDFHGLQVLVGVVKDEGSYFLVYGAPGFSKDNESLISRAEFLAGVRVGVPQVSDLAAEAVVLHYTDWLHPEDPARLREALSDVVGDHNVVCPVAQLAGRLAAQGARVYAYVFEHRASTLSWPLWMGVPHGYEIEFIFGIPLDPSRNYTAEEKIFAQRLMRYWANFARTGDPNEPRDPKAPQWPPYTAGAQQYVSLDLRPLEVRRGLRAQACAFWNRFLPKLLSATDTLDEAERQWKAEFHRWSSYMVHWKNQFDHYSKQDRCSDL
Experimental: as §1, §2
The values represent the absorbance (Abs) measured three times in the form of average value±standard deviation.

[3] = Spontaneous hydrolysis rate in the buffer solution (Ellman method); format: physicochemical; settings: buffer solution without enzyme; absorbance at 412 nm; measured three times, average ± standard deviation

SMILES	hydrolysis rate with butyrylcholinesterase compared with spontaneous hydrolysis in the buffer solution [1]	hydrolysis rate with Butyrylcholinesterase (change in absorbance per minute) [1]	hydrolysis rate with Acetylcholinesterase (change in absorbance per minute) [2]	spontaneous hydrolysis rate (change in absorbance per minute) [3]	specificity for acetylcholinesterase [2]	reaction order of the hydrolysis rate (time dependence) [2]	substrate quality for acetylcholinesterase [2]	change in absorbance at 412 nm with time [2]
CC(=O)SC(C)C[N+](C)(C)C (stereo not drawn) [Acetyl-β methyl-thiocholine, reference compound]	significantly higher	7.1 ± 0.22 ΔmAbs/minute	29 ± 0.24 ΔmAbs/minute	0.48 ± 0.020 ΔmAbs/minute	–	–	–	–
CC(=O)SCC1CCN(C)CC1 [Compound (1a), 1-methylpiperidin-4-ylmethyl acetyl sulfide]	did not show any significant difference	0.47 ± 0.026 ΔmAbs/minute	3.7 ± 0.098 ΔmAbs/minute	0.47 ± 0.0096 ΔmAbs/minute	extremely highly specific	consistent with the zero-order reaction	good substrates for acetylcholinesterase	approximately 0.4 Abs
CC(=O)SCC1CC[N+](C)(C)CC1 [Compound (2a), 1,1-dimethylpiperidin-4-ylmethyl acetyl sulfide]	did not show any significant difference	0.15 ± 0.0077 ΔmAbs/minute	3.1 ± 0.15 ΔmAbs/minute	0.13 ± 0.027 ΔmAbs/minute	extremely highly specific	consistent with the zero-order reaction	good substrates for acetylcholinesterase	approximately 0.4 Abs
